What was measured:
Assay type in all cases: binding
Conditions in all cases: Compound Concentration 10 µM
panel of 442 kinases [1] = biological target: T1, panel of 442 kinases (Homo sapiens, UniProt Q16816)
T1 construct: purchased KINOMEscan
Description: (§1) We assessed the selectivity of members of this scaffold using the KINOMEscan methodology across a near comprehensive panel of 442 kinases [[18,27]].

panel of 442 kinases [2] = biological target: T2, panel of 442 kinases (Homo sapiens, UniProt Q8NG66)
T2 construct: purchased KINOMEscan
T2 sequence (Q8NG66 1-645): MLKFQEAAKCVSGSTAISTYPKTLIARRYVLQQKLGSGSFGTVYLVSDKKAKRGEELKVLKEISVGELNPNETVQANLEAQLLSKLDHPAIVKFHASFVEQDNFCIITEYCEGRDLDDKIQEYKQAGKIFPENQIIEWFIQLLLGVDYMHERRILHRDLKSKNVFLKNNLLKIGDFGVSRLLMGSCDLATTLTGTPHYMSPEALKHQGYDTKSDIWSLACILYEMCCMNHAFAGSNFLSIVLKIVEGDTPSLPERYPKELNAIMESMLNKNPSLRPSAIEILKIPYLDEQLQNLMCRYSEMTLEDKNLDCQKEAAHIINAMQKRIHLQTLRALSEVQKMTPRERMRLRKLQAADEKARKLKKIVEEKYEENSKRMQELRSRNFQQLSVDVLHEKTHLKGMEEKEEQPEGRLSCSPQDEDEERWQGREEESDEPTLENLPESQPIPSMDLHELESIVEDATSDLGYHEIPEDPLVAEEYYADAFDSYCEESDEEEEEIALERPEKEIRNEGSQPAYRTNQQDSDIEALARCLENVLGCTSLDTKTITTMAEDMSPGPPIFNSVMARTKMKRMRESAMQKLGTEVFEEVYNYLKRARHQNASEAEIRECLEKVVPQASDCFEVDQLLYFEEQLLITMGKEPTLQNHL
Description: as §1

panel of 442 kinases [3] = biological target: T3, panel of 442 kinases (Homo sapiens, UniProt P08581, Y1235D)
T3 construct: purchased KINOMEscan
Description: as §1

T3 sequence (P08581 25-1390 Y1235D): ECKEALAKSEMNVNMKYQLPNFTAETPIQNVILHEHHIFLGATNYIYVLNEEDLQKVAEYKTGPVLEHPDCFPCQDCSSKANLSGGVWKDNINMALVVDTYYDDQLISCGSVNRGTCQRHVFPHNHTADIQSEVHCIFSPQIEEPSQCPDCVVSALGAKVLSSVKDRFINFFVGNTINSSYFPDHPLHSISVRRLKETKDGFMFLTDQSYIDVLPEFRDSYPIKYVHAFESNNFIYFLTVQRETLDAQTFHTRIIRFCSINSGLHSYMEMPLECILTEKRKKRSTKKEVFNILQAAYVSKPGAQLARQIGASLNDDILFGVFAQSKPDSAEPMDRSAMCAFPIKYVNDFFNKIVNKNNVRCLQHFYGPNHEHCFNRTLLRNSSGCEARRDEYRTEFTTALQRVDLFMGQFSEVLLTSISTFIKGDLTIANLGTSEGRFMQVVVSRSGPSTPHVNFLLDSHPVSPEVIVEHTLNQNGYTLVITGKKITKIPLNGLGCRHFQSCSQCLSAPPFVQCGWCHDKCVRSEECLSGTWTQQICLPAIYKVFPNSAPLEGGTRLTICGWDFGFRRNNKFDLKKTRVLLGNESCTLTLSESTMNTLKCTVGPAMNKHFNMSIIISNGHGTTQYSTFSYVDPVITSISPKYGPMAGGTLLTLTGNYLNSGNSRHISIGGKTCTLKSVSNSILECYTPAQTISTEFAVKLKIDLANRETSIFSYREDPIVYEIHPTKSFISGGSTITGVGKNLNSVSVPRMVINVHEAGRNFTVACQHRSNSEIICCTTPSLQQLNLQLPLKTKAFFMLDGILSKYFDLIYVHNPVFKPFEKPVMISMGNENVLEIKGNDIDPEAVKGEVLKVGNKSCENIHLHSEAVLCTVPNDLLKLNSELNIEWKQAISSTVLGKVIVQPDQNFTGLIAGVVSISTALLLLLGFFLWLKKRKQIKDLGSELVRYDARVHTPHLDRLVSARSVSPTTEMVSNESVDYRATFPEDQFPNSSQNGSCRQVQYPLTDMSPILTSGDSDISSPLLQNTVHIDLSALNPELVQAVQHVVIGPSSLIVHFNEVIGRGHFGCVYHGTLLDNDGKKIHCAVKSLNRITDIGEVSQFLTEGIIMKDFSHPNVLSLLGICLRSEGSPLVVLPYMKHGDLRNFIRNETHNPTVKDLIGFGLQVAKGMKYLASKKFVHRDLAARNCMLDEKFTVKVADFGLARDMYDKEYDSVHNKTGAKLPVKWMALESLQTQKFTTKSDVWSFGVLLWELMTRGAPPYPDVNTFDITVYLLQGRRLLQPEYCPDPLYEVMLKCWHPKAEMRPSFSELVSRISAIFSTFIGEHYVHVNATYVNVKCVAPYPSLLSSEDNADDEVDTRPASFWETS
T1 sequence (Q16816 whole entry): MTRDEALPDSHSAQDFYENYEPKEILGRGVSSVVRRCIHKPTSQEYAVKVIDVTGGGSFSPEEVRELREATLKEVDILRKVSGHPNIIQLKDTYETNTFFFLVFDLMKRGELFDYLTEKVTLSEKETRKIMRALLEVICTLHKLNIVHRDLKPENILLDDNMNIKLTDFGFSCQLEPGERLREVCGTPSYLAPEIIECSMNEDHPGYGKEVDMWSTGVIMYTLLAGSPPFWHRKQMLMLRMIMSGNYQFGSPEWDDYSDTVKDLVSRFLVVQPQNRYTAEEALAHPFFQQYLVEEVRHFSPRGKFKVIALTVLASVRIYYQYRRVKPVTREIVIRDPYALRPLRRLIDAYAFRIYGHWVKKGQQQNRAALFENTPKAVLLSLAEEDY

Row | SMILES | KINOMEscan: PHKG1 (panel of 442 kinases [1]) | KINOMEscan: NEK11 (panel of 442 kinases [2]) | KINOMEscan: MET(Y1235D) (panel of 442 kinases [3])
1 | COc1cc(C(=O)N2CCC(N3CCN(C)CC3)CC2)ccc1Nc1ncc2c(n1)N(C)c1ccccc1C(=O)N2C [15 (LRRK2-IN-1)] | 54 | 100 | 100
2 | CCOc1cc(C(=O)N2CCC(N3CCN(C)CC3)CC2)ccc1Nc1ncc2c(n1)N(C1CCCC1)c1ccccc1C(=O)N2C [Compound 26] | 100 | 100 | 100
3 | COc1cc(C(=O)N2CCC(N3CCN(C)CC3)CC2)ccc1Nc1ncc2c(n1)N1CCc3cccc(c31)C(=O)N2C [Compound 24] | 75 |  | 74
4 | COc1cc(C(=O)N2CCC(N3CCN(C)CC3)CC2)ccc1Nc1ncc2c(n1)N(C1CCCC1)c1ccccc1C(=O)N2C [Compound 25, 11-cyclopentyl-2-((2-methoxy-4-(4-(4-methylpiperazin-1-yl)piperidine-1-carbonyl)phenyl)amino)-5-methyl-5H-benzo[e]pyrimido[5,4-b][1,4]diazepin-6(11H)-one] | 100 | 100 | 100

— PMC3914206
